Results reported in patent US9738634B2, “Heterocyclic amide compound and herbicide” (SYNGENTA PARTICIPATIONS AG, priority 2013, dated 2017).

Legend:
Assay type in all cases: in vivo
Conditions in all cases: treatment dosage 320 g/ha
common wind-grass [1] = assay: Test Example 4: weedkilling efficacy by foliar treatment; J: common wind-grass
Procedure, shortened: (§1)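 Seeds are spot-sown into sterilized diluvial soil and covered with about 1.5 cm of soil. After 14 days' greenhouse growth at 25 to 30° C, plants are sprayed on stems and leaves with diluted emulsion at the stated g/ha rate, then scored at 3 weeks.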

soybean [2] = assay: Test Example 3: soil treatment, effect on crop; d: soybean
Procedure, shortened: (§2)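 Crop and weed responses were judged three weeks after a uniform surface spray of the water-diluted emulsion at the given g/ha rate. Seeds sat beneath about 1.5 cm of sterilized diluvial soil, and boxes stood in a greenhouse at 25 to 30° C.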

Indian mallow [3] = assay: Test Example 3: weedkilling efficacy through soil treatment; K: Indian mallow
Procedure, shortened: as §2

black-grass [4] = assay: Test Example 4: weedkilling efficacy by foliar treatment; H: black-grass
Procedure, shortened: as §1

oval-leafed pondweed [5] = assay: Test Example 1: weedkilling efficacy, preemergent weed treatment in the submerged state; C: oval-leafed pondweed
Procedure, shortened: (§3)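 Pots of alluvial soil flooded 4 cm deep, sown with barnyard grass, bulrush and oval-leafed pondweed and transplanted with 2.5-leaf rice. Emulsified compound applied to the water surface on sowing day at stated g/ha; greenhouse 25–30 °C, effects assessed 3 weeks after treatment.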

beet [6] = assay: Test Example 3: soil treatment, effect on crop; f: beet
Procedure, shortened: as §2

Indian mallow [7] = assay: Test Example 4: weedkilling efficacy by foliar treatment; K: Indian mallow
Procedure, shortened: as §1

green foxtail [8] = assay: Test Example 4: weedkilling efficacy by foliar treatment; E: green foxtail
Procedure, shortened: as §1

barnyard grass [9] = assay: Test Example 2: weedkilling efficacy, growth period weed treatment in the submerged state; A: barnyard grass
Procedure, shortened: (§4)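 Barnyard grass, bulrush and oval-leafed pondweed sown in alluvial soil under 4 cm flooding, greenhouse 25 to 30° C. At 1-2 leaf stage, water-diluted emulsion applied to the water surface at stated g/ha dosages; effects scored 3 weeks later.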

wheat [10] = assay: Test Example 4: foliar treatment, effect on crop; e: wheat
Procedure, shortened: as §1

birds-eye speedwell [11] = assay: Test Example 4: weedkilling efficacy by foliar treatment; p: birds-eye speedwell
Procedure, shortened: as §1

corn [12] = assay: Test Example 3: soil treatment, effect on crop; c: corn
Procedure, shortened: as §2

beet [13] = assay: Test Example 4: foliar treatment, effect on crop; f: beet
Procedure, shortened: as §1

common wind-grass [14] = assay: Test Example 3: weedkilling efficacy through soil treatment; J: common wind-grass
Procedure, shortened: as §2

Italian ryegrass [15] = assay: Test Example 3: weedkilling efficacy through soil treatment; I: Italian ryegrass
Procedure, shortened: as §2

transplanted rice = assay: Test Example 1: preemergent weed treatment in the submerged state, effect on crop; a: transplanted rice
Procedure, shortened: as §3

wheat [16] = assay: Test Example 3: soil treatment, effect on crop; e: wheat
Procedure, shortened: as §2

barnyard grass [17] = assay: Test Example 4: weedkilling efficacy by foliar treatment; F: barnyard grass
Procedure, shortened: as §1

oval-leafed pondweed [18] = assay: Test Example 2: weedkilling efficacy, growth period weed treatment in the submerged state; C: oval-leafed pondweed
Procedure, shortened: as §4

rapeseed [19] = assay: Test Example 3: soil treatment, effect on crop; g: rapeseed
Procedure, shortened: as §2

crabgrass [20] = assay: Test Example 3: weedkilling efficacy through soil treatment; D: crabgrass
Procedure, shortened: as §2

barnyard grass [21] = assay: Test Example 3: weedkilling efficacy through soil treatment; F: barnyard grass
Procedure, shortened: as §2

birds-eye speedwell [22] = assay: Test Example 3: weedkilling efficacy through soil treatment; p: birds-eye speedwell
Procedure, shortened: as §2

bulrush [23] = assay: Test Example 2: weedkilling efficacy, growth period weed treatment in the submerged state; B: bulrush
Procedure, shortened: as §4

corn [24] = assay: Test Example 4: foliar treatment, effect on crop; c: corn
Procedure, shortened: as §1

redroot pigweed [25] = assay: Test Example 4: weedkilling efficacy by foliar treatment; L: redroot pigweed
Procedure, shortened: as §1

green foxtail [26] = assay: Test Example 3: weedkilling efficacy through soil treatment; E: green foxtail
Procedure, shortened: as §2

fig-leafed goosefoot = assay: Test Example 3: weedkilling efficacy through soil treatment; M: fig-leafed goosefoot
Procedure, shortened: as §2

barnyard grass [27] = assay: Test Example 1: weedkilling efficacy, preemergent weed treatment in the submerged state; A: barnyard grass
Procedure, shortened: as §3

catchweed [28] = assay: Test Example 4: weedkilling efficacy by foliar treatment; O: catchweed
Procedure, shortened: as §1

chickweed [29] = assay: Test Example 4: weedkilling efficacy by foliar treatment; N: chickweed
Procedure, shortened: as §1

rapeseed [30] = assay: Test Example 4: foliar treatment, effect on crop; g: rapeseed
Procedure, shortened: as §1

redroot pigweed [31] = assay: Test Example 3: weedkilling efficacy through soil treatment; L: redroot pigweed
Procedure, shortened: as §2

soybean [32] = assay: Test Example 4: foliar treatment, effect on crop; d: soybean
Procedure, shortened: as §1

chickweed [33] = assay: Test Example 3: weedkilling efficacy through soil treatment; N: chickweed
Procedure, shortened: as §2

catchweed [34] = assay: Test Example 3: weedkilling efficacy through soil treatment; O: catchweed
Procedure, shortened: as §2

wild oat [35] = assay: Test Example 3: weedkilling efficacy through soil treatment; G: wild oat
Procedure, shortened: as §2

crabgrass [36] = assay: Test Example 4: weedkilling efficacy by foliar treatment; D: crabgrass
Procedure, shortened: as §1

Italian ryegrass [37] = assay: Test Example 4: weedkilling efficacy by foliar treatment; I: Italian ryegrass
Procedure, shortened: as §1

black-grass [38] = assay: Test Example 3: weedkilling efficacy through soil treatment; H: black-grass
Procedure, shortened: as §2

directly sown rice [39] = assay: Test Example 3: soil treatment, effect on crop; b: directly sown rice
Procedure, shortened: as §2

wild oat [40] = assay: Test Example 4: weedkilling efficacy by foliar treatment; G: wild oat
Procedure, shortened: as §1

directly sown rice [41] = assay: Test Example 4: foliar treatment, effect on crop; b: directly sown rice
Procedure, shortened: as §1

bulrush [42] = assay: Test Example 1: weedkilling efficacy, preemergent weed treatment in the submerged state; B: bulrush
Procedure, shortened: as §3

**Q.** Which “J (common wind-grass) weedkilling efficacy grade” value (common wind-grass [1]) does the source give for `COc1cc(Cl)nc(NC(=O)C(C)(C)N2COC(C)=C(c3ccccc3)C2=O)c1` [B-2-47] here?
**A.** The value was 4 (weed kill ratio 70% or more, less than 90%).

**Q.** And the “d (soybean) effect on crop grade” value (soybean [2])?
**A.** Its value is 0 (weed kill ratio 5% or less (practically no effect)).

**Q.** And the “K (Indian mallow) weedkilling efficacy grade” value (Indian mallow [3])?
**A.** Its value is 0 (weed kill ratio 5% or less (practically no effect)).

**Q.** What about the “H (black-grass) weedkilling efficacy grade” value (black-grass [4]) of the same compound?
**A.** The value was 2 (weed kill ratio 20% or more, less than 40%).

**Q.** And the “C (oval-leafed pondweed) weedkilling efficacy grade” value (oval-leafed pondweed [5])?
**A.** Its value is 5 (weed kill ratio 90% or more, (practically complete withering)).

**Q.** What about the “f (beet) effect on crop grade” value (beet [6]) of the same compound?
**A.** Its value is 2 (weed kill ratio 20% or more, less than 40%).

**Q.** What about the “K (Indian mallow) weedkilling efficacy grade” value (Indian mallow [7]) of the same compound?
**A.** The value was 0 (weed kill ratio 5% or less (practically no effect)).

**Q.** And the “E (green foxtail) weedkilling efficacy grade” value (green foxtail [8])?
**A.** The value was 4 (weed kill ratio 70% or more, less than 90%).

**Q.** And the “A (barnyard grass) weedkilling efficacy grade” value (barnyard grass [9])?
**A.** The value was 5 (weed kill ratio 90% or more, (practically complete withering)).

**Q.** What about the “e (wheat) effect on crop grade” value (wheat [10]) of the same compound?
**A.** Its value is 0 (weed kill ratio 5% or less (practically no effect)).

**Q.** What about the “P (birds-eye speedwell) weedkilling efficacy grade” value (birds-eye speedwell [11]) of the same compound?
**A.** The value was 4 (weed kill ratio 70% or more, less than 90%).

**Q.** What about the “c (corn) effect on crop grade” value (corn [12]) of the same compound?
**A.** The value was 0 (weed kill ratio 5% or less (practically no effect)).

**Q.** What about the “f (beet) effect on crop grade” value (beet [13]) of the same compound?
**A.** The value was 3 (weed kill ratio 40% or more, less than 70%).

**Q.** What about the “J (common wind-grass) weedkilling efficacy grade” value (common wind-grass [14]) of the same compound?
**A.** Its value is 5 (weed kill ratio 90% or more, (practically complete withering)).

**Q.** What about the “I (Italian ryegrass) weedkilling efficacy grade” value (Italian ryegrass [15]) of the same compound?
**A.** The value was 5 (weed kill ratio 90% or more, (practically complete withering)).

**Q.** And the “a (transplanted rice) effect on crop grade” value (transplanted rice)?
**A.** Its value is 1 (weed kill ratio 5% or more, less than 20%).

**Q.** And the “e (wheat) effect on crop grade” value (wheat [16])?
**A.** The value was 0 (weed kill ratio 5% or less (practically no effect)).

**Q.** And the “F (barnyard grass) weedkilling efficacy grade” value (barnyard grass [17])?
**A.** Its value is 1 (weed kill ratio 5% or more, less than 20%).

**Q.** And the “C (oval-leafed pondweed) weedkilling efficacy grade” value (oval-leafed pondweed [18])?
**A.** The value was 5 (weed kill ratio 90% or more, (practically complete withering)).

**Q.** And the “g (rapeseed) effect on crop grade” value (rapeseed [19])?
**A.** The value was 3 (weed kill ratio 40% or more, less than 70%).

**Q.** And the “D (crabgrass) weedkilling efficacy grade” value (crabgrass [20])?
**A.** The value was 4 (weed kill ratio 70% or more, less than 90%).

**Q.** And the “F (barnyard grass) weedkilling efficacy grade” value (barnyard grass [21])?
**A.** The value was 4 (weed kill ratio 70% or more, less than 90%).

**Q.** And the “P (birds-eye speedwell) weedkilling efficacy grade” value (birds-eye speedwell [22])?
**A.** The value was 5 (weed kill ratio 90% or more, (practically complete withering)).

**Q.** What about the “B (bulrush) weedkilling efficacy grade” value (bulrush [23]) of the same compound?
**A.** The value was 5 (weed kill ratio 90% or more, (practically complete withering)).

**Q.** What about the “c (corn) effect on crop grade” value (corn [24]) of the same compound?
**A.** The value was 0 (weed kill ratio 5% or less (practically no effect)).

**Q.** And the “L (redroot pigweed) weedkilling efficacy grade” value (redroot pigweed [25])?
**A.** Its value is 0 (weed kill ratio 5% or less (practically no effect)).

**Q.** And the “E (green foxtail) weedkilling efficacy grade” value (green foxtail [26])?
**A.** Its value is 5 (weed kill ratio 90% or more, (practically complete withering)).

**Q.** What about the “M (fig-leafed goosefoot) weedkilling efficacy grade” value (fig-leafed goosefoot) of the same compound?
**A.** Its value is 2 (weed kill ratio 20% or more, less than 40%).

**Q.** And the “A (barnyard grass) weedkilling efficacy grade” value (barnyard grass [27])?
**A.** The value was 5 (weed kill ratio 90% or more, (practically complete withering)).

**Q.** And the “O (catchweed) weedkilling efficacy grade” value (catchweed [28])?
**A.** Its value is 3 (weed kill ratio 40% or more, less than 70%).

**Q.** And the “N (chickweed) weedkilling efficacy grade” value (chickweed [29])?
**A.** Its value is 2 (weed kill ratio 20% or more, less than 40%).

**Q.** What about the “g (rapeseed) effect on crop grade” value (rapeseed [30]) of the same compound?
**A.** Its value is 3 (weed kill ratio 40% or more, less than 70%).

**Q.** And the “L (redroot pigweed) weedkilling efficacy grade” value (redroot pigweed [31])?
**A.** The value was 0 (weed kill ratio 5% or less (practically no effect)).

**Q.** And the “d (soybean) effect on crop grade” value (soybean [32])?
**A.** Its value is 0 (weed kill ratio 5% or less (practically no effect)).

**Q.** What about the “N (chickweed) weedkilling efficacy grade” value (chickweed [33]) of the same compound?
**A.** The value was 3 (weed kill ratio 40% or more, less than 70%).

**Q.** And the “O (catchweed) weedkilling efficacy grade” value (catchweed [34])?
**A.** Its value is 4 (weed kill ratio 70% or more, less than 90%).

**Q.** What about the “G (wild oat) weedkilling efficacy grade” value (wild oat [35]) of the same compound?
**A.** The value was 2 (weed kill ratio 20% or more, less than 40%).

**Q.** And the “D (crabgrass) weedkilling efficacy grade” value (crabgrass [36])?
**A.** Its value is 3 (weed kill ratio 40% or more, less than 70%).

**Q.** And the “I (Italian ryegrass) weedkilling efficacy grade” value (Italian ryegrass [37])?
**A.** The value was 2 (weed kill ratio 20% or more, less than 40%).

**Q.** And the “H (black-grass) weedkilling efficacy grade” value (black-grass [38])?
**A.** The value was 5 (weed kill ratio 90% or more, (practically complete withering)).

**Q.** And the “b (directly sown rice) effect on crop grade” value (directly sown rice [39])?
**A.** Its value is 3 (weed kill ratio 40% or more, less than 70%).

**Q.** And the “G (wild oat) weedkilling efficacy grade” value (wild oat [40])?
**A.** Its value is 2 (weed kill ratio 20% or more, less than 40%).

**Q.** And the “b (directly sown rice) effect on crop grade” value (directly sown rice [41])?
**A.** The value was 0 (weed kill ratio 5% or less (practically no effect)).

**Q.** What about the “B (bulrush) weedkilling efficacy grade” value (bulrush [42]) of the same compound?
**A.** Its value is 5 (weed kill ratio 90% or more, (practically complete withering)).
